The NIST ThermoML archive (doi:10.1021/je3009304)
± gives the expanded uncertainty stated by the source.

Conditions: Liquid

C=C(F)C(F)(F)F [2,3,3,3-tetrafluoro-1-propene]
Conditions	mass density [kg/m3]
217.44 K, 14681 kPa, isochoric method	1363.7 ± 1.3
218.27 K, 962.6 kPa, isochoric method	1333.8 ± 1.3
219.23 K, 2020.3 kPa, isochoric method	1333.7 ± 1.3
220.22 K, 3106.5 kPa, isochoric method	1333.6 ± 1.3
221.18 K, 4140.3 kPa, isochoric method	1333.5 ± 1.3
221.97 K, 20077 kPa, isochoric method	1363.2 ± 1.3
222.06 K, 5097 kPa, isochoric method	1333.4 ± 1.3
226.65 K, 10087 kPa, isochoric method	1332.9 ± 1.3
226.93 K, 25988 kPa, isochoric method	1362.7 ± 1.3
230.27 K, 29902 kPa, isochoric method	1362.4 ± 1.3
231.25 K, 15017 kPa, isochoric method	1332.4 ± 1.3
231.72 K, 1001.1 kPa, isochoric method	1298.5 ± 1.3
232.84 K, 2093.9 kPa, isochoric method	1298.4 ± 1.3
233.76 K, 2987 kPa, isochoric method	1298.2 ± 1.3
234.77 K, 35121 kPa, isochoric method	1361.9 ± 1.3
234.92 K, 4113.3 kPa, isochoric method	1298.2 ± 1.3
236.02 K, 20027 kPa, isochoric method	1332 ± 1.3
236.13 K, 5205.1 kPa, isochoric method	1298 ± 1.3
240.49 K, 24777 kPa, isochoric method	1331.5 ± 1.3
241.06 K, 10038 kPa, isochoric method	1297.5 ± 1.3
245.59 K, 30165 kPa, isochoric method	1331 ± 1.3
246.22 K, 14993 kPa, isochoric method	1297.1 ± 1.3
250.28 K, 35113 kPa, isochoric method	1330.6 ± 1.3
251.43 K, 19983 kPa, isochoric method	1296.6 ± 1.3
251.62 K, 971.2 kPa, isochoric method	1243.5 ± 1.2
252.83 K, 1949.3 kPa, isochoric method	1243.4 ± 1.2
254.25 K, 3101.8 kPa, isochoric method	1243.3 ± 1.2
254.96 K, 39964 kPa, isochoric method	1330.1 ± 1.3
255.48 K, 4096.7 kPa, isochoric method	1243.2 ± 1.2
256.7 K, 5077.8 kPa, isochoric method	1243.1 ± 1.2
256.72 K, 25008 kPa, isochoric method	1296.1 ± 1.3
261.89 K, 29860 kPa, isochoric method	1295.6 ± 1.3
262.98 K, 10262 kPa, isochoric method	1242.5 ± 1.2
267.49 K, 35084 kPa, isochoric method	1295.1 ± 1.3
269.01 K, 15092 kPa, isochoric method	1242 ± 1.2
269.39 K, 1033.4 kPa, isochoric method	1191.1 ± 1.2
270.88 K, 2044.5 kPa, isochoric method	1190.9 ± 1.2
272.34 K, 3041.1 kPa, isochoric method	1190.8 ± 1.2
272.52 K, 39731 kPa, isochoric method	1294.7 ± 1.3
273.79 K, 4025.5 kPa, isochoric method	1190.7 ± 1.2
275.28 K, 5036.3 kPa, isochoric method	1190.6 ± 1.2
275.31 K, 20033 kPa, isochoric method	1241.4 ± 1.2
282.03 K, 25427 kPa, isochoric method	1240.8 ± 1.2
282.83 K, 10183 kPa, isochoric method	1189.9 ± 1.2
282.95 K, 1036 kPa, isochoric method	1147.5 ± 1.2
284.62 K, 2015.3 kPa, isochoric method	1147.4 ± 1.2
286.31 K, 3030.5 kPa, isochoric method	1147.2 ± 1.2
287.71 K, 29892 kPa, isochoric method	1240.4 ± 1.2
287.89 K, 3962.5 kPa, isochoric method	1147.1 ± 1.2
289.95 K, 15007 kPa, isochoric method	1189.4 ± 1.2
289.99 K, 5188 kPa, isochoric method	1146.9 ± 1.2
294.1 K, 34879 kPa, isochoric method	1239.8 ± 1.2
297.11 K, 19748 kPa, isochoric method	1188.8 ± 1.2
297.15 K, 1034.7 kPa, isochoric method	1097.2 ± 1.2
298.15 K, 2000 kPa, Pycnometric method	1101.34 ± 1
298.15 K, 9991.7 kPa, isochoric method	1146.3 ± 1.2
299.15 K, 2029.1 kPa, isochoric method	1097.1 ± 1.2
300.61 K, 39892 kPa, isochoric method	1239.3 ± 1.2
301.16 K, 3031.3 kPa, isochoric method	1096.9 ± 1.2
303.02 K, 3977.9 kPa, isochoric method	1096.8 ± 1.2
304.9 K, 24929 kPa, isochoric method	1188.2 ± 1.2
305.47 K, 5182.3 kPa, isochoric method	1096.6 ± 1.2
306.32 K, 14776 kPa, isochoric method	1145.7 ± 1.2
312.45 K, 29920 kPa, isochoric method	1187.5 ± 1.2
315.08 K, 9982 kPa, isochoric method	1095.9 ± 1.2
315.09 K, 19876 kPa, isochoric method	1145 ± 1.2
315.95 K, 2247.5 kPa, isochoric method	1032.9 ± 1.2
317.45 K, 2859.3 kPa, isochoric method	1032.8 ± 1.2
320.1 K, 34906 kPa, isochoric method	1187 ± 1.2
320.32 K, 4014.4 kPa, isochoric method	1032.6 ± 1.2
322.67 K, 4967.1 kPa, isochoric method	1032.4 ± 1.2
323.87 K, 24958 kPa, isochoric method	1144.4 ± 1.2
325.07 K, 14981 kPa, isochoric method	1095.2 ± 1.2
325.16 K, 5973.9 kPa, isochoric method	1032.3 ± 1.2
327.9 K, 39962 kPa, isochoric method	1186.4 ± 1.2
332.6 K, 29948 kPa, isochoric method	1143.7 ± 1.2
335.17 K, 2008.9 kPa, isochoric method	935 ± 1.2
335.17 K, 19964 kPa, isochoric method	1094.5 ± 1.2
335.18 K, 10007 kPa, isochoric method	1031.6 ± 1.2
338.63 K, 3007.2 kPa, isochoric method	934.8 ± 1.2
341.49 K, 35032 kPa, isochoric method	1143.1 ± 1.2
342.03 K, 3976.9 kPa, isochoric method	934.7 ± 1.2
345.34 K, 25002 kPa, isochoric method	1093.8 ± 1.2
345.42 K, 4963.5 kPa, isochoric method	934.5 ± 1.2
347.2 K, 14893 kPa, isochoric method	1030.8 ± 1.2
350.33 K, 40033 kPa, isochoric method	1142.5 ± 1.2
353.14 K, 28869 kPa, isochoric method	1093.3 ± 1.2
353.15 K, 7224.7 kPa, isochoric method	934 ± 1.2
353.15 K, 17361 kPa, isochoric method	1030.5 ± 1.2

FC(F)=C(F)C(F)(F)F [hexafluoropropene]
Conditions	mass density [kg/m3]
208.66 K, 4440.7 kPa, isochoric method	1666.3 ± 1.6
212.77 K, 9785.5 kPa, isochoric method	1665.7 ± 1.6
217.15 K, 15655 kPa, isochoric method	1665.1 ± 1.6
220.5 K, 19878 kPa, isochoric method	1664.7 ± 1.6
220.7 K, 1017.1 kPa, isochoric method	1618 ± 1.6
221.58 K, 1995.2 kPa, isochoric method	1617.9 ± 1.6
222.5 K, 3032.3 kPa, isochoric method	1617.8 ± 1.6
223.26 K, 3878.8 kPa, isochoric method	1617.7 ± 1.6
224.31 K, 5176.5 kPa, isochoric method	1617.5 ± 1.6
224.32 K, 25024 kPa, isochoric method	1664.2 ± 1.6
228.25 K, 29978 kPa, isochoric method	1663.7 ± 1.6
228.76 K, 10104 kPa, isochoric method	1616.9 ± 1.6
232.02 K, 34664 kPa, isochoric method	1663.2 ± 1.6
233.17 K, 15012 kPa, isochoric method	1616.4 ± 1.6
236.26 K, 39771 kPa, isochoric method	1662.7 ± 1.6
237.66 K, 1075 kPa, isochoric method	1560.8 ± 1.6
237.67 K, 20020 kPa, isochoric method	1615.8 ± 1.6
238.62 K, 2000 kPa, isochoric method	1560.7 ± 1.6
239.74 K, 3075.4 kPa, isochoric method	1560.5 ± 1.6
240.8 K, 4091.1 kPa, isochoric method	1560.4 ± 1.6
241.91 K, 5150.8 kPa, isochoric method	1560.2 ± 1.6
241.95 K, 25034 kPa, isochoric method	1615.3 ± 1.6
247.02 K, 10041 kPa, isochoric method	1559.6 ± 1.6
247.52 K, 30945 kPa, isochoric method	1614.6 ± 1.6
251.36 K, 35209 kPa, isochoric method	1614.2 ± 1.6
252.41 K, 1004.8 kPa, isochoric method	1507.5 ± 1.6
252.51 K, 15276 kPa, isochoric method	1559 ± 1.6
253.78 K, 2142.1 kPa, isochoric method	1507.3 ± 1.6
254.97 K, 3117.5 kPa, isochoric method	1507.2 ± 1.6
255.93 K, 40226 kPa, isochoric method	1613.6 ± 1.6
256.1 K, 4061.6 kPa, isochoric method	1507 ± 1.6
257.5 K, 5226.1 kPa, isochoric method	1506.9 ± 1.6
257.54 K, 20028 kPa, isochoric method	1558.4 ± 1.6
262.84 K, 25067 kPa, isochoric method	1557.8 ± 1.6
268.15 K, 30042 kPa, isochoric method	1557.2 ± 1.6
269.46 K, 1140.2 kPa, isochoric method	1444.5 ± 1.6
269.51 K, 15216 kPa, isochoric method	1506 ± 1.6
270.71 K, 2007.3 kPa, isochoric method	1444.3 ± 1.6
272.14 K, 2994.8 kPa, isochoric method	1444.2 ± 1.6
273.5 K, 34978 kPa, isochoric method	1556.7 ± 1.6
273.87 K, 4188.8 kPa, isochoric method	1444 ± 1.6
275.36 K, 5220.9 kPa, isochoric method	1443.8 ± 1.6
275.38 K, 20012 kPa, isochoric method	1505.4 ± 1.6
278.75 K, 39847 kPa, isochoric method	1556.1 ± 1.6
281.62 K, 25020 kPa, isochoric method	1504.3 ± 1.6
282.66 K, 10250 kPa, isochoric method	1443.1 ± 1.6
282.84 K, 1039.3 kPa, isochoric method	1388.2 ± 1.5
284.56 K, 2050.1 kPa, isochoric method	1388.1 ± 1.5
286.25 K, 2995.1 kPa, isochoric method	1387.9 ± 1.5
287.65 K, 30072 kPa, isochoric method	1504.2 ± 1.6
287.98 K, 4010.4 kPa, isochoric method	1387.7 ± 1.5
289.44 K, 14959 kPa, isochoric method	1442.4 ± 1.6
289.66 K, 4997.4 kPa, isochoric method	1387.6 ± 1.5
294.12 K, 35270 kPa, isochoric method	1503.5 ± 1.6
296.97 K, 20036 kPa, isochoric method	1441.7 ± 1.6
297.23 K, 942.2 kPa, isochoric method	1322 ± 1.5
298.15 K, 2000 kPa, Pycnometric method	1326.6 ± 1.3
298.15 K, 10003 kPa, isochoric method	1386.8 ± 1.5
299.3 K, 1958.7 kPa, isochoric method	1321.8 ± 1.5
300.38 K, 40273 kPa, isochoric method	1502.9 ± 1.6
301.47 K, 3021.5 kPa, isochoric method	1321.6 ± 1.5
303.44 K, 3963.5 kPa, isochoric method	1321.4 ± 1.5
304.43 K, 25120 kPa, isochoric method	1441 ± 1.6
305.51 K, 4983.5 kPa, isochoric method	1321.2 ± 1.5
307 K, 15256 kPa, isochoric method	1385.9 ± 1.5
311.59 K, 29972 kPa, isochoric method	1440.3 ± 1.6
315.78 K, 2033.9 kPa, isochoric method	1237.1 ± 1.5
315.78 K, 9999.6 kPa, isochoric method	1320.4 ± 1.5
315.78 K, 20405 kPa, isochoric method	1385.1 ± 1.5
317.54 K, 2708.8 kPa, isochoric method	1237 ± 1.5
319.05 K, 35044 kPa, isochoric method	1439.6 ± 1.6
320.92 K, 3993.8 kPa, isochoric method	1236.7 ± 1.5
323.55 K, 4999.4 kPa, isochoric method	1236.5 ± 1.5
324.09 K, 25251 kPa, isochoric method	1384.4 ± 1.5
326.52 K, 40028 kPa, isochoric method	1438.9 ± 1.6
326.95 K, 15464 kPa, isochoric method	1319.4 ± 1.5
332.97 K, 30410 kPa, isochoric method	1383.6 ± 1.5
335.66 K, 19726 kPa, isochoric method	1318.7 ± 1.5
336.51 K, 9979.8 kPa, isochoric method	1235.5 ± 1.5
340.74 K, 34883 kPa, isochoric method	1382.9 ± 1.5
345.95 K, 24723 kPa, isochoric method	1317.8 ± 1.5
352.67 K, 41719 kPa, isochoric method	1381.9 ± 1.5
353.15 K, 16419 kPa, isochoric method	1234.2 ± 1.5
353.15 K, 28219 kPa, isochoric method	1317.2 ± 1.5
